# From ChEMBL document CHEMBL1124295, “Synthesis and oral antiallergic activity of carboxylic acids derived from imidazo[2,1-c][1,4]benzoxazines, imidazo[1,2-a]quinolines, imidazo[1,2-a]quinoxalines, imidazo[1,2-a]quinoxalinones, pyrrolo[1,2-a]quinoxalinones, pyrrolo[2,3-a]quinoxalinones, and imidazo[2,1-b]benzothiazoles” (1988)
# Calls of active or inactive are those of the source. The calls are words filed in the database; no cut-off is given here.
# How the values were obtained:
# Rattus norvegicus [1] = experiment: Inhibition of the IgE-mediated passive cutaneous anaphylaxis (PCA) reaction in rat after intravenous administration; Range 0.08-0.37; assay type: functional
# Rattus norvegicus [2] = experiment: Inhibition of the IgE-mediated passive cutaneous anaphylaxis (PCA) reaction in rat after intravenous administration; Range 0.06-0.22; assay type: functional
# Rattus norvegicus [3] = experiment: Inhibition of the IgE-mediated passive cutaneous anaphylaxis (PCA) reaction in rat after intravenous administration; Range 1.31-4.63; assay type: functional
# Rattus norvegicus [4] = experiment: Inhibition of the IgE-mediated passive cutaneous anaphylaxis (PCA) reaction in rat after oral administration at concentration of 10 mg/Kg of compound; assay type: functional
# Rattus norvegicus [5] = experiment: Inhibition of the IgE-mediated passive cutaneous anaphylaxis (PCA) reaction in rat after oral administration of 10 mg/Kg of compound; assay type: functional
# Rattus norvegicus [6] = experiment: Inhibition of the IgE-mediated passive cutaneous anaphylaxis (PCA) reaction in rat after oral administration; Range 0.37-0.65; assay type: functional
# Rattus norvegicus [7] = experiment: Inhibition of the IgE-mediated passive cutaneous anaphylaxis (PCA) reaction in rat after oral administration; Range 0.21-7.6; assay type: functional
# Rattus norvegicus [8] = experiment: Inhibition of the IgE-mediated passive cutaneous anaphylaxis (PCA) reaction in rat after intravenous administration; Range 0.025-0.11; assay type: functional
# Rattus norvegicus [9] = experiment: Inhibition of the IgE-mediated passive cutaneous anaphylaxis (PCA) reaction in rat after oral administration; Range 0.51-7.81; assay type: functional
# Rattus norvegicus [10] = experiment: Inhibition of the IgE-mediated passive cutaneous anaphylaxis (PCA) reaction in rat after oral administration; Range 0.06-0.199; assay type: functional
# Rattus norvegicus [11] = experiment: Inhibition of the IgE-mediated passive cutaneous anaphylaxis (PCA) reaction in rat after intravenous administration; Range 0.013-0.023; assay type: functional
# Rattus norvegicus [12] = experiment: Inhibition of the IgE-mediated passive cutaneous anaphylaxis (PCA) reaction in rat after intravenous administration; Range 0.34-0.45; assay type: functional
# Rattus norvegicus [13] = experiment: Inhibition of the IgE-mediated passive cutaneous anaphylaxis (PCA) reaction in rat after oral administration; Range 5.21-7.35; assay type: functional
# Rattus norvegicus [14] = experiment: Inhibition of the IgE-mediated passive cutaneous anaphylaxis (PCA) reaction in rat after oral administration; Range 2.51-4.1; assay type: functional
# Rattus norvegicus [15] = experiment: Inhibition of the IgE-mediated passive cutaneous anaphylaxis (PCA) reaction in rat after oral administration; NA means inactive at 1 and 10 mg/Kg; assay type: functional, organism-based
# Rattus norvegicus [16] = experiment: Inhibition of the IgE-mediated passive cutaneous anaphylaxis (PCA) reaction in rat after intravenous administration; Range 0.12-1.07; assay type: functional
# Rattus norvegicus [17] = experiment: Inhibition of the IgE-mediated passive cutaneous anaphylaxis (PCA) reaction in rat after intravenous administration; Range 0.104; assay type: functional
# Rattus norvegicus [18] = experiment: Inhibition of the IgE-mediated passive cutaneous anaphylaxis (PCA) reaction in rat after oral administration; Inactive at 20 mg/kg; assay type: functional, organism-based; set-up: dose 20 mg/kg
# Rattus norvegicus [19] = experiment: Inhibition of the IgE-mediated passive cutaneous anaphylaxis (PCA) reaction in rat after intravenous administration; Range 0.014-0.029; assay type: functional
# Rattus norvegicus [20] = experiment: Inhibition of the IgE-mediated passive cutaneous anaphylaxis (PCA) reaction in rat after intravenous administration; Range 0.22-0.59; assay type: functional
# Rattus norvegicus [21] = experiment: Inhibition of the IgE-mediated passive cutaneous anaphylaxis (PCA) reaction in rat after oral administration; Range 0.031-0.15; assay type: functional
# Rattus norvegicus [22] = experiment: Inhibition of the IgE-mediated passive cutaneous anaphylaxis (PCA) reaction in rat after intravenous administration; Range 0.052-0.43; assay type: functional
# Rattus norvegicus [23] = experiment: Inhibition of the IgE-mediated passive cutaneous anaphylaxis (PCA) reaction in rat after oral administration; Range 2.47-3.45; assay type: functional
# Rattus norvegicus [24] = experiment: Inhibition of the IgE-mediated passive cutaneous anaphylaxis (PCA) reaction in rat after intravenous administration; Range 2.22-3.63; assay type: functional
# Rattus norvegicus [25] = experiment: Inhibition of the IgE-mediated passive cutaneous anaphylaxis (PCA) reaction in rat after oral administration; Range 12.3-33.8; assay type: functional
# Rattus norvegicus [26] = experiment: Inhibition of the IgE-mediated passive cutaneous anaphylaxis (PCA) reaction in rat after intravenous administration; Range 1.07-3.93; assay type: functional
# Rattus norvegicus [27] = experiment: Inhibition of the IgE-mediated passive cutaneous anaphylaxis (PCA) reaction in rat after intravenous administration; Range 1.73-30.03; assay type: functional
# Rattus norvegicus [28] = experiment: Inhibition of the IgE-mediated passive cutaneous anaphylaxis (PCA) reaction in rat after oral administration; Range 2.71-7.46; assay type: functional
# Rattus norvegicus [29] = experiment: Inhibition of the IgE-mediated passive cutaneous anaphylaxis (PCA) reaction in rat after oral administration; Range 0.021-0.089; assay type: functional
# Rattus norvegicus [30] = experiment: Inhibition of the IgE-mediated passive cutaneous anaphylaxis (PCA) reaction in rat after intravenous administration; Range 0.066-0.453; assay type: functional
# Rattus norvegicus [31] = experiment: Inhibition of the IgE-mediated passive cutaneous anaphylaxis (PCA) reaction in rat after oral administration; Range 2.89-3.99; assay type: functional
# Rattus norvegicus [32] = experiment: Inhibition of the IgE-mediated passive cutaneous anaphylaxis (PCA) reaction in rat after intravenous administration; Range 0.1-0.44; assay type: functional
# Rattus norvegicus [33] = experiment: Inhibition of the IgE-mediated passive cutaneous anaphylaxis (PCA) reaction in rat after oral administration; Range 1.88-2.85; assay type: functional
# Rattus norvegicus [34] = experiment: Inhibition of the IgE-mediated passive cutaneous anaphylaxis (PCA) reaction in rat after oral administration; Range 0.07-0.03; assay type: functional
# Rattus norvegicus [35] = experiment: Inhibition of the IgE-mediated passive cutaneous anaphylaxis (PCA) reaction in rat after intravenous administration; Range 0.004-0.006; assay type: functional
# Rattus norvegicus [36] = experiment: Inhibition of the IgE-mediated passive cutaneous anaphylaxis (PCA) reaction in rat after intravenous administration; Range 0.39-0.96; assay type: functional
# Rattus norvegicus [37] = experiment: Inhibition of the IgE-mediated passive cutaneous anaphylaxis (PCA) reaction in rat after oral administration; NA means inactive; assay type: functional, organism-based
# Rattus norvegicus [38] = experiment: Inhibition of the IgE-mediated passive cutaneous anaphylaxis (PCA) reaction in rat after intravenous administration; Range 0.047-0.108; assay type: functional
# Rattus norvegicus [39] = experiment: Inhibition of the IgE-mediated passive cutaneous anaphylaxis (PCA) reaction in rat after intravenous administration; Range 0.072-0.41; assay type: functional
# Rattus norvegicus [40] = experiment: Inhibition of the IgE-mediated passive cutaneous anaphylaxis (PCA) reaction in rat after intravenous administration; Range 0.007-0.049; assay type: functional
# Rattus norvegicus [41] = experiment: Inhibition of the IgE-mediated passive cutaneous anaphylaxis (PCA) reaction in rat after oral administration; Range 0.07-22.7; assay type: functional
# Rattus norvegicus [42] = experiment: Inhibition of the IgE-mediated passive cutaneous anaphylaxis (PCA) reaction in rat after oral administration; Range 0.20-0.83; assay type: functional
# Rattus norvegicus [43] = experiment: Inhibition of the IgE-mediated passive cutaneous anaphylaxis (PCA) reaction in rat after intravenous administration; Range 0.20-0.5; assay type: functional
# Rattus norvegicus [44] = experiment: Inhibition of the IgE-mediated passive cutaneous anaphylaxis (PCA) reaction in rat after intravenous administration; Range 0.08-1.71; assay type: functional
# Rattus norvegicus [45] = experiment: Inhibition of the IgE-mediated passive cutaneous anaphylaxis (PCA) reaction in rat after intravenous administration; Range 0.0103-0.0214; assay type: functional
# Rattus norvegicus [46] = experiment: Inhibition of the IgE-mediated passive cutaneous anaphylaxis (PCA) reaction in rat after oral administration; Range 0.65-6.05; assay type: functional
# Rattus norvegicus [47] = experiment: Inhibition of the IgE-mediated passive cutaneous anaphylaxis (PCA) reaction in rat after intravenous administration; Range 2.22-5.31; assay type: functional
# Rattus norvegicus [48] = experiment: Inhibition of the IgE-mediated passive cutaneous anaphylaxis (PCA) reaction in rat after oral administration; Range 0.182-1.56; assay type: functional
# Rattus norvegicus [49] = experiment: Inhibition of the IgE-mediated passive cutaneous anaphylaxis (PCA) reaction in rat after intravenous administration; Range 0.31-0.45; assay type: functional
# Rattus norvegicus [50] = experiment: Inhibition of the IgE-mediated passive cutaneous anaphylaxis (PCA) reaction in rat after oral administration; Range 0.29-6.49; assay type: functional
# Rattus norvegicus [51] = experiment: Inhibition of the IgE-mediated passive cutaneous anaphylaxis (PCA) reaction in rat after intravenous administration; Range 0.43-0.74; assay type: functional
# Rattus norvegicus [52] = experiment: Inhibition of the IgE-mediated passive cutaneous anaphylaxis (PCA) reaction in rat after intravenous administration; Range 0.043-0.12; assay type: functional
structure (smiles),measurement,setting,value
CCc1ccc2ccc3nc(C(=O)O)cn3c2c1,ED50,Rattus norvegicus [1],0.16 mg/kg
CCn1c(=O)c2cc(C(=O)O)nn2c2ccccc21,ED50,Rattus norvegicus [2],0.11 mg/kg
O=C(O)c1cn2c(n1)COc1ccc([N+](=O)[O-])cc1-2,ED50,Rattus norvegicus [3],2.22 mg/kg
O/N=C\c1cn2c(n1)COc1ccccc1-2,Inhibition,Rattus norvegicus [4],42%
O=C(OCC(O)CO)c1cn2c(ccc3ccccc32)n1 (stereo not drawn),Inhibition,Rattus norvegicus [5],47%
CCOC(=O)C(=O)Nc1ccc2c(c1)-n1cc(C(=O)OC)nc1CO2,ED50,Rattus norvegicus [6],0.5 mg/kg
O=Cc1cn2c(cc(Cl)c3ccc(Cl)cc32)n1,ED50,Rattus norvegicus [7],0.5 mg/kg
CS(=O)(=O)c1cc2nc(C(=O)O)cn2c2ccccc12,ED50,Rattus norvegicus [8],0.047 mg/kg
same,ED50,Rattus norvegicus [9],1.64 mg/kg
CCCCn1c(=O)c2cc(C(=O)O)cn2c2ccc(Cl)cc21,ED50,Rattus norvegicus [10],0.114 mg/kg
same,ED50,Rattus norvegicus [11],0.019 mg/kg
O=C(O)c1cn2c(n1)CCc1ccccc1-2,ED50,Rattus norvegicus [12],0.39 mg/kg
same,ED50,Rattus norvegicus [13],6.14 mg/kg
O=C(OCCCl)c1cn2c(ccc3ccccc32)n1,ED50,Rattus norvegicus [14],3.5 mg/kg
O=C(Nc1nn[nH]n1)c1cn2c(n1)COc1ccccc1-2,ED50,Rattus norvegicus [15],inactive
same,ED50,Rattus norvegicus [16],0.33 mg/kg
O=C(O)c1ncn2c1c(O)nc1ccccc12,ED50,Rattus norvegicus [17],0.104 mg/kg
same,ED50,Rattus norvegicus [18],inactive
CCCn1c(=O)c2cc(C(=O)O)nn2c2ccccc21,ED50,Rattus norvegicus [19],0.023 mg/kg
C[S+](=N)([O-])c1cc2nc(C(=O)O)cn2c2ccccc12 (stereo not drawn),ED50,Rattus norvegicus [20],0.35 mg/kg
O=Cc1cn2c(cnc3ccccc32)n1,ED50,Rattus norvegicus [21],0.073 mg/kg
same,ED50,Rattus norvegicus [22],0.137 mg/kg
O=C(O)c1cn2c(n1)COc1ccccc1-2,ED50,Rattus norvegicus [23],3.2 mg/kg
same,ED50,Rattus norvegicus [24],2.89 mg/kg
O=C(O)c1cc2c(=O)n(-c3ccccc3)c3ccccc3n2c1,ED50,Rattus norvegicus [25],18.9 mg/kg
O=C(O)c1cn2c(n1)N=S(=O)(c1ccccc1)c1ccccc1-2 (stereo not drawn),ED50,Rattus norvegicus [26],1.92 mg/kg
O=Cc1cn2c(n1)COc1ccccc1-2,ED50,Rattus norvegicus [27],4.79 mg/kg
same,ED50,Rattus norvegicus [28],4.27 mg/kg
OCc1cn2c(cnc3ccccc32)n1,ED50,Rattus norvegicus [29],0.061 mg/kg
same,ED50,Rattus norvegicus [30],0.156 mg/kg
COC(=O)c1cn2c(n1)COc1ccc(NC(C)=O)cc1-2,ED50,Rattus norvegicus [31],3.48 mg/kg
Cn1c(=O)c2cc(C(=O)O)nn2c2ccccc21,ED50,Rattus norvegicus [32],0.19 mg/kg
CCn1c(=O)c2cc(C=O)cn2c2ccccc21,ED50,Rattus norvegicus [33],2.53 mg/kg
CCCCCCc1cc([S+](C)(=N)[O-])cc2c(=O)c3cc(C(=O)O)ccc3oc12.NC(CO)(CO)CO (stereo not drawn),ED50,Rattus norvegicus [34],0.19 mg/kg
same,ED50,Rattus norvegicus [35],0.005 mg/kg
COc1ccc2c(c1)sc1nc(C(=O)O)cn12,ED50,Rattus norvegicus [36],0.62 mg/kg
CC(=O)Nc1ccc2c(c1)-n1cc(C(=O)O)nc1CO2,ED50,Rattus norvegicus [37],inactive
same,ED50,Rattus norvegicus [38],0.073 mg/kg
COc1cccc2sc3nc(C(=O)O)cn3c12,ED50,Rattus norvegicus [39],0.16 mg/kg
Clc1ccc2c(Cl)cc3nc(-c4nn[nH]n4)cn3c2c1,ED50,Rattus norvegicus [40],0.016 mg/kg
same,ED50,Rattus norvegicus [41],0.5 mg/kg
O=C(Nc1nn[nH]n1)c1cn2c(ccc3ccccc32)n1,ED50,Rattus norvegicus [42],0.54 mg/kg
same,ED50,Rattus norvegicus [43],0.31 mg/kg
O=C(O)c1cc2c(O)nc3ccccc3n2n1,ED50,Rattus norvegicus [44],0.33 mg/kg
O=C(O)C(=O)Nc1ccc2c(c1)-n1cc(C(=O)O)nc1CO2,ED50,Rattus norvegicus [45],0.0172 mg/kg
CC1(C)OCC(COC(=O)c2cn3c(ccc4ccccc43)n2)O1 (stereo not drawn),ED50,Rattus norvegicus [46],1.7 mg/kg
COc1ccc2ccc3nc(CN)cn3c2c1.Cl.Cl,ED50,Rattus norvegicus [47],3.39 mg/kg
CCn1c(=O)c2cc(-c3nn[nH]n3)cn2c2ccccc21,ED50,Rattus norvegicus [48],0.44 mg/kg
Cc1nc(C(=O)O)c2c(O)nc3ccccc3n12,ED50,Rattus norvegicus [49],0.37 mg/kg
OCc1cn2c(n1)COc1ccccc1-2,ED50,Rattus norvegicus [50],2.73 mg/kg
Nc1nnnn1C(=O)c1cn2c(n1)COc1ccccc1-2,ED50,Rattus norvegicus [15],inactive
same,ED50,Rattus norvegicus [51],0.58 mg/kg
C[S+]([O-])c1ccc2ccc3nc(C(=O)O)cn3c2c1 (stereo not drawn),ED50,Rattus norvegicus [52],0.076 mg/kg
